The values below come from patent US9663513B2, “Pyrimidine PDE10 inhibitors” (Merck Sharp & Dohme Corp., priority 2012, dated 2017).

Molecules are shown by their SMILES.

Sequence of human PDE10A2 (Q9Y233 267-1055): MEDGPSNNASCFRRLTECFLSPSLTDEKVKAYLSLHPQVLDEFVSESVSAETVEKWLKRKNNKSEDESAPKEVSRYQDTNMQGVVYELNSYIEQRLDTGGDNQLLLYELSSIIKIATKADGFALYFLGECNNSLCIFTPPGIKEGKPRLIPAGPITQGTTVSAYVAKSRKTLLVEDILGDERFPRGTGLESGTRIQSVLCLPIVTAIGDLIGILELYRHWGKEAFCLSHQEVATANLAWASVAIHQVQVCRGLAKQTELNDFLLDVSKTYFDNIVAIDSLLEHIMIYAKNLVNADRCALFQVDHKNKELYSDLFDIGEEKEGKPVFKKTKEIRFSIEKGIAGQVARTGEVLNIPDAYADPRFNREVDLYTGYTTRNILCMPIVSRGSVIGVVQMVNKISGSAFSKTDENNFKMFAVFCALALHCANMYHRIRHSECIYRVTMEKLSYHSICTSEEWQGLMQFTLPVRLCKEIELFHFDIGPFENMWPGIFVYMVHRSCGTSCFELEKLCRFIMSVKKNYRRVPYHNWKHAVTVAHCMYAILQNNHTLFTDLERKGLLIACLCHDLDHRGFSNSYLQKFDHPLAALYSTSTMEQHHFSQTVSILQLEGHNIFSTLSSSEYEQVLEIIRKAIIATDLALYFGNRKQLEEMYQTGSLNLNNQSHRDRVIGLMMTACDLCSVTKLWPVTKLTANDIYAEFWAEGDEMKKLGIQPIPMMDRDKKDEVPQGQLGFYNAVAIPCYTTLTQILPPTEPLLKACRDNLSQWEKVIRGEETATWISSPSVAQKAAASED

The test concerns the target human PDE10A2 (Homo sapiens (Human), UniProt Q9Y233). As to the kind of experiment: PDE10 fluorescence polarization (IMAP FP) inhibition assay. The format is biochemical. The conditions noted are these: human PDE10A2 from transfected AD293 cells; FAM-labeled cAMP 50 nM; apparent inhibition constant; read-out: PDE10A Ki. The method in brief: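 Cytoplasmic lysate of AD293 cells transiently expressing human PDE10A2 (enzyme level giving 20% conversion) incubated with 50 nM FAM-cAMP in pH 7.2 Tris/MgCl2 buffer, 30 min at room temperature. IMAP binding solution added, FP read after ≥1 h; 10-point 3-fold compound titrations fitted to a four-parameter equation.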
A general note: In fluorescence polarisation assays a small probe gives low polarisation when free and higher when bound to something large.
Take `Cc1ccc([C@H]2C[C@@H]2COc2nc(C)ncc2-c2cn(C)nc2C(F)F)nc1` [Example 125, 5-(3-(difluoromethyl)-1-methyl-1H-pyrazol-4-yl)-2-methyl-4-(((1S,2S)-2-(5-methylpyridin-2-yl)cyclopropyl)methoxy)pyrimidine]: the Ki is 400 pM.

For the compound `Cc1ncc(-c2ncccc2F)c(OC[C@H]2C[C@@H]2c2ccc3ccccc3n2)n1` [Example 127, 2-((1S,2S)-2-((5-(3-fluoropyridin-2-yl)-2-methylpyrimidin-4-yloxy)methyl)cyclopropyl)quinoline], the Ki was 510 pM.

For the compound `Cc1ccnc(-c2cnc(C)nc2OC[C@H]2C[C@@H]2c2ccc3ccccc3n2)c1` [Example 128, 2-((1S,2S)-2-((2-methyl-5-(4-methylpyridin-2-yl)pyrimidin-4-yloxy)methyl)cyclopropyl)quinoline], the Ki turned out to be 120 pM.

Take `Cc1ncc(-c2ccc3ncc(C)n3c2)c(OC[C@H]2C[C@@H]2c2ccc3ccccc3n2)n1` [Example 129, 2-((1S,2S)-2-((2-methyl-5-(3-methylimidazo[1,2-a]pyridin-6-yl)pyrimidin-4-yloxy)methyl)cyclopropyl)quinoline]: the Ki was 20 pM.

Consider `Cc1ccc([C@H]2C[C@@H]2COc2nc(C)ncc2-c2ccc3ncc(C)n3c2)nc1` [Example 130, 3-methyl-6-(2-methyl-4-(((1S,2S)-2-(5-methylpyridin-2-yl)cyclopropyl)methoxy)pyrimidin-5-yl)imidazo[1,2-a]pyridine], for which the Ki stood at 390 pM.

Regarding `COc1cc(-c2cnc(C)nc2OC[C@H]2C[C@@H]2c2ccc3ccccc3n2)cc2nccn12` [Example 131, 2-((1S,2S)-2-((5-(5-methoxyimidazo[1,2-a]pyridin-7-yl)-2-methylpyrimidin-4-yloxy)methyl)cyclopropyl)quinoline], the Ki stood at 40 pM.

In the case of `COc1cc(-c2cnc(C)nc2OC[C@H]2C[C@@H]2c2ccc(C)cn2)cc2nccn12` [Example 132, 5-methoxy-7-(2-methyl-4-(((1S,2S)-2-(5-methylpyridin-2-yl)cyclopropyl)methoxy)pyrimidin-5-yl)imidazo[1,2-a]pyridine], the Ki was 810 pM.

With `Cc1ncc(-c2cnc3ccccn23)c(OC[C@H]2C[C@@H]2c2ccc3ccccc3n2)n1` [Example 133, 2-((1S,2S)-2-((5-(imidazo[1,2-a]pyridin-3-yl)-2-methylpyrimidin-4-yloxy)methyl)cyclopropyl)quinoline], the Ki came to 60 pM.

On to `Cc1ncc(-c2cccn3ccnc23)c(OC[C@H]2C[C@@H]2c2ccc3ccccc3n2)n1` [Example 134, 2-((1S,2S)-2-((5-(imidazo[1,2-a]pyridin-8-yl)-2-methylpyrimidin-4-yloxy)methyl)cyclopropyl)quinoline], for which the Ki worked out at 4030 pM.

As for `Cc1ccc([C@H]2C[C@@H]2COc2nc(C)ncc2-c2cccn3ccnc23)nc1` [Example 135, 8-(2-methyl-4-(((1S,2S)-2-(5-methylpyridin-2-yl)cyclopropyl)methoxy)pyrimidin-5-yl)imidazo[1,2-a]pyridine], the Ki was 37300 pM.

In the case of `Cc1ncc(-c2ccc3nccn3c2)c(OC[C@H]2C[C@@H]2c2ccc3ccccc3n2)n1` [Example 136, 2-((1S,2S)-2-((5-(imidazo[1,2-a]pyridin-6-yl)-2-methylpyrimidin-4-yloxy)methyl)cyclopropyl)quinoline], the Ki stood at 40 pM.

Take `Cc1ccc([C@H]2C[C@@H]2COc2nc(C)ncc2-c2ccc3nccn3c2)nc1` [Example 137, 6-(2-methyl-4-(((1S,2S)-2-(5-methylpyridin-2-yl)cyclopropyl)methoxy)pyrimidin-5-yl)imidazo[1,2-a]pyridine]: the Ki is 630 pM.

In the case of `Cc1ccc([C@H]2C[C@@H]2COc2nc(C)ncc2-c2ccc(C(C)(C)O)nc2C)nc1` [Example 138, 2-(6-Methyl-5-(2-methyl-4-(((1S,2S)-2-(5-methylpyridin-2-yl)cyclopropyl)methoxy)pyrimidin-5-yl)pyridin-2-yl)propan-2-ol], the Ki came out at 230 pM.

With `Cc1ccc([C@H]2C[C@@H]2COc2nc(C)ncc2-c2ccc(C(O)C(C)C)nc2)nc1` (stereo partly drawn) [Example 139, 2-methyl-1-(5-(2-methyl-4-(((1S,2S)-2-(5-methylpyridin-2-yl)cyclopropyl)methoxy)pyrimidin-5-yl)pyridin-2-yl)propan-1-ol], the Ki came to 370 pM.

Take `Cc1ccc([C@H]2C[C@@H]2COc2nc(C)ncc2-c2ccc(C(O)C(C)C)nc2)nc1` (stereo partly drawn) [Example 140, 2-methyl-1-(5-(2-methyl-4-(((1S,2S)-2-(5-methylpyridin-2-yl)cyclopropyl)methoxy)pyrimidin-5-yl)pyridin-2-yl)propan-1-ol]: the Ki was determined as 1630 pM.

For `Cc1ccc([C@H]2C[C@@H]2COc2nc(C)ncc2-c2ccc(C(C)O)nc2)nc1` (stereo partly drawn) [Example 141, 1-(5-(2-methyl-4-(((1S,2S)-2-(5-methylpyridin-2-yl)cyclopropyl)methoxy)pyrimidin-5-yl)pyridin-2-yl)ethanol], the Ki came out at 240 pM.

`Cc1ccc([C@H]2C[C@@H]2COc2nc(C)ncc2-c2cnc3[nH]ncc3c2)nc1` [Example 142, 5-(2-methyl-4-(((1S,2S)-2-(5-methylpyridin-2-yl)cyclopropyl)methoxy)pyrimidin-5-yl)-1H-pyrazolo[3,4-b]pyridine]: the Ki stood at 370 pM.

`CCC(O)c1ccc(-c2cnc(C)nc2OC[C@H]2C[C@@H]2c2ccc(C)cn2)cn1` (stereo partly drawn) [Example 143, 1-(5-(2-methyl-4-(((1S,2S)-2-(5-methylpyridin-2-yl)cyclopropyl)methoxy)pyrimidin-5-yl)pyridin-2-yl)propan-1-ol]: the Ki amounted to 160 pM.

As for `CCC(O)c1ccc(-c2cnc(C)nc2OC[C@H]2C[C@@H]2c2ccc(C)cn2)cn1` (stereo partly drawn) [Example 144, 1-(5-(2-methyl-4-(((1S,2S)-2-(5-methylpyridin-2-yl)cyclopropyl)methoxy)pyrimidin-5-yl)pyridin-2-yl)propan-1-ol], the Ki came out at 730 pM.

`Cc1ccc([C@H]2C[C@@H]2COc2nc(C)ncc2-c2ccc(C(O)C(F)(F)F)nc2)nc1` (stereo partly drawn) [Example 145, 2,2,2-trifluoro-1-(5-(2-methyl-4-(((1S,2S)-2-(5-methylpyridin-2-yl)cyclopropyl)methoxy)pyrimidin-5-yl)pyridin-2-yl)ethanol]: the Ki worked out at 540 pM.

Regarding `Cc1ccc([C@H]2C[C@@H]2COc2nc(C)ncc2-c2ccc(C(O)C(F)(F)F)nc2)nc1` (stereo partly drawn) [Example 146], the Ki is 250 pM.

`Cc1ccc([C@H]2C[C@@H]2COc2nc(C)ncc2-c2ccncc2C)nc1` [Example 147, 2-methyl-4-(((1S,2S)-2-(5-methylpyridin-2-yl)cyclopropyl)methoxy)-5-(3-methylpyridin-4-yl)pyrimidine]: the Ki was 400 pM.

With `Cc1ccc([C@H]2C[C@@H]2COc2nc(C)ncc2-c2ccc(C(C)O)nc2)nc1` (stereo partly drawn) [Example 148, 1-(5-(2-methyl-4-(((1S,2S)-2-(5-methylpyridin-2-yl)cyclopropyl)methoxy)pyrimidin-5-yl)pyridin-2-yl)ethanol], the Ki is 980 pM.

For the compound `Cc1ccc([C@H]2C[C@@H]2COc2nc(C)ncc2-c2ccc(C(C)O)nc2)nc1` (stereo partly drawn) [Example 149, 1-(5-(2-methyl-4-(((1S,2S)-2-(5-methylpyridin-2-yl)cyclopropyl)methoxy)pyrimidin-5-yl)pyridin-2-yl)ethanol], the Ki came to 140 pM.
